Reference: US20210212968A1, “COMBINATIONS COMPRISING AN SSAO/VAP-1 INHIBITOR AND A SGLT2 INHIBITOR, USES THEREOF” (Boehringer Ingelheim International GmbH, priority 2016, published 2021)

Assays:
[1] = patients with type 2 diabetes mellitus at high risk for cardiovascular events; cited from earlier work
SGLT2 versus SGLT1 = conditions: cited from earlier work
[2] = metformin on its own, in the diabetic; cited from earlier work
human diamine oxidase = molecular target: T1, human diamine oxidase (Homo sapiens, UniProt P19801); assay: inhibition of human diamine oxidase; assay type: biochemical
T1 sequence (P19801 20-751): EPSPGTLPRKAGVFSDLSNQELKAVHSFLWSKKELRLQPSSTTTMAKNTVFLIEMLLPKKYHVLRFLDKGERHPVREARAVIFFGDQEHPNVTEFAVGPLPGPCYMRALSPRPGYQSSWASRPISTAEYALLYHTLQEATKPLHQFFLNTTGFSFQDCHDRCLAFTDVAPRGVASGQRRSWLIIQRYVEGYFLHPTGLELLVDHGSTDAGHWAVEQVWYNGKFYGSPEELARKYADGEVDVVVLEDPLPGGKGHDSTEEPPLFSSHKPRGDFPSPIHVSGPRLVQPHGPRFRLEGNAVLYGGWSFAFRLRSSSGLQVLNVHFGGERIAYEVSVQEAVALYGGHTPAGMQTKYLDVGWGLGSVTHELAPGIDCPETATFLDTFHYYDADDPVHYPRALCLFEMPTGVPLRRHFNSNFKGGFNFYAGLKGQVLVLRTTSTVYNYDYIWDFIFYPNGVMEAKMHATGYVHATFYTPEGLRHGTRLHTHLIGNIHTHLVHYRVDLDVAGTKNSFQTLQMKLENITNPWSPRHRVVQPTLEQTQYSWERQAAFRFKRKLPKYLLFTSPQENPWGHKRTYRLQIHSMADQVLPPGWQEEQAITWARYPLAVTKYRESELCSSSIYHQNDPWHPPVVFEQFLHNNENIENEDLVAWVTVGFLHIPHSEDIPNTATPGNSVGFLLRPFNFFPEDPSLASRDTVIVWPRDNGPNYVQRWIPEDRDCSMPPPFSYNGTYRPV

For OC[C@H]1O[C@@H](c2ccc(Cl)c(Cc3ccc(O[C@H]4CCOC4)cc3)c2)[C@H](O)[C@@H](O)[C@@H]1O [empagliflozin], the “rates of the primary composite cardiovascular outcome and of death from any cause” value [1] is given as “significantly lower rates” and the “selectivity SGLT2 versus SGLT1” value (SGLT2 versus SGLT1) is given as “high selectivity”.
For CN(C)C(=N)N=C(N)N [metformin], the “average improvement in the HbA1c value” [2] is listed as 1.0-1.5%.
With CC(C)(C)NC(=O)c1ccc(OC/C(=C/F)CN)cc1 [Compound 23, (E)-4-(2-(Aminomethyl)-3-fluoroallyloxy)-N-tert-butylbenzamide] the “inhibitory activity against human diamine oxidase” value (human diamine oxidase) was “low inhibitory activity”.
